Source: patent US7659277B2, “Ubiquitin ligase inhibitors and methods related thereto” (Proteologies, Ltd., priority 2003, dated 2010)
Where two headings read alike, the source gives them in different places.

Experiments:
POSH = target: T1, POSH (Homo sapiens, UniProt Q7Z6J0); assay: IC50 assay procedure: GST-POSH auto-ubiquitination, homogeneous time-resolved fluorescence (Ub-cryptate / anti-GST XL665); assay type: biochemical; details: ubiquitin ligase activity of POSH; GST-POSH 33 nM, 30 min preincubation
T1 construct: GST-POSH lot NB81/p.118 3.6 mg/ml; fused on or other part: GST tag, used for detection with anti-GST XL665
T1 sequence (Q7Z6J0 1-269 limits assumed): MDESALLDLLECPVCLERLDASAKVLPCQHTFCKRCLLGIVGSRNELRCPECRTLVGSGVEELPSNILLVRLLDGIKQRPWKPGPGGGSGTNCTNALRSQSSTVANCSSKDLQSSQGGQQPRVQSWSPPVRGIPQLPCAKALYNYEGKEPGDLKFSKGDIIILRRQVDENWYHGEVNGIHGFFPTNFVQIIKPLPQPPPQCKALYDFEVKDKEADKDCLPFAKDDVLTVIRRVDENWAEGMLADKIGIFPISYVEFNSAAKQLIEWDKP
Excerpt: In certain preferred embodiments, agents that inhibit (or promote) the ubiquitin ligase activity of a ubiquitin ligase, such as POSH, may be identified using a homogenous time resolved fluorescence assay. Such an assay may employ a GST fused to the RING subunit of a ubiquitin ligase (e.g. POSH). Two flurophore-conjugated detection reagents are also used: anti-GSTXL665 and europium cryptate labeled ubiqutin. The ubiqutination of the ubiquitin ligase by ubiqutin cryptate and binding of the anti-GST tagged XL665 brings the fluorophores into close proximity allowing FRET reaction to occur. Accordingly, FRET serves as a measurement of ubiquitination of the ubiquitin ligase. An enzymatic system may be set up to provide activated ubiquitin, e.g., by providing ubiquitin, an E1 and an E2. Compounds that will not allow the FRET reaction are considered to be inhibitors.
Step 3: establish IC 50 value measurements.
Experimental Protocols: 1. HTS Screening Assay Procedure • Microplates 10109D to 10114D compounds at 1 mM. • (Controls in column 1). • All compounds were perchase from ChemBridge corporation: ChemBridge corporation 16981 Via Tazon, Suite G San Diego, Calif. 92127 a. Microplates Labeling • Put labels to 6 PS U-bottom clear microplate. • Put labels to 18 black microplates (triplicats). b. Microplates Preparation • Put 100 μl GST-POSH at 33 nM in wells of the clear PS U-bottom microplates (exept wells A1-D1). • Negative control: place 100 μl dH2O in wells A1-D1. • (Positive control: place 100 μl GST-POSH at 33 nM in wells E1-H1). • Put 8 μl enzymes solution ×4 to black microplates (column 1 to 11). c. Incubation of E3 with Compounds • Transfer 5 μl of compounds (at 1 mM) to the microplates containing 100 μl GST-POSH. • Add 5 μl of DMSO to controls column 1. • Incubation 30 minutes at RT. d. Enzymatic (Ubiquitination) and Final Steps • Distribution of (triplicate) 3×23 μl incubated compounds into 3 black microplates containing enzymatic solution (on splitting apparatus). • Incubation 30 minutes at 37° C. • Addition of 8 μl EDTA 0.5 M. • Incubation 15 (at least) minutes at RT. • Addition of 30 μl GST XL 665 in reconstitution buffer. • Incubation 45 (at least) minutes at RT. • Reading fluorescence. • Record results in computer. • Put sealing foil back on original and diluted microplates and keep at −70° C. • Always the plates must be closed with lids during each step. 2. […] Microplates Labeling • Put labels to 4 clear PP clear microplate (18.2 μM, 9.1 uM, 1.82 uM, 910 nM,). • Put labels to 5 clear PS U-bottom clear microplate 4.44 μM, 909, 444, 91 and 44 nM) • Put labels to 15 black microplates (triplicates). f. Original Microplate Dilutions • Put DMSO 40 μl to (18.2 μM, 1.82 uM plates) and 20 ul to (9.1 uM, 910 nM plates. • Mix by pipetation the original microplate (3× up and down 45 μl). • Transfer 10 μl of compounds from the original microplate (at 91 μM) to the next microplate (=18.2 μM) on splitting apparatus. • Mix by pipetation the 18.2 uM microplate (3× up and down 45 μl). • Transfer 20 μl of compounds from the 18.2 uM microplate to the next microplate (=9.1 μM) on splitting apparatus. • Mix by pipetation the 9.1 uM microplate (3× up and down 45 μl). • Transfer 10 μl of compounds from the 9.1 uM microplate to the next microplate (=1.82 μM) on splitting apparatus. • Mix by pipetation the 1.82 uM microplate (3× up and down 45 μl). • Transfer 20 μl of compounds from the 1.82 uM microplate to the next microplate (=910 nM) on splitting apparatus • Mix by pipetation. g. Microplates Preparation • Put 123 μl GST-POSH at 33 nM in wells of the 5 clear PS U-bottom clear microplates. • Positive control: place 123 μl GST-POSH at 33 nM in well A12-h12 13 μl DMSO. • Negative control: place 123 μl dH2O in well B1 and 13 μl DMSO. • Put 8 μl enzymes solution ×4 to 15 black microplates. • Controls: put 8 μl enzymes solution ×4 to wells A1 to F1. h. […]

Hmdm2 = Hmdm2 (Homo sapiens, UniProt Q00987); assay: Selectivity (% A in 1 μM), ubiquitin ligase activity of Hmdm2; assay type: biochemical; details: read-out: Selectivity (% A* in 1 μM) Hmdm2
Hmdm2, sequence (Q00987 whole entry): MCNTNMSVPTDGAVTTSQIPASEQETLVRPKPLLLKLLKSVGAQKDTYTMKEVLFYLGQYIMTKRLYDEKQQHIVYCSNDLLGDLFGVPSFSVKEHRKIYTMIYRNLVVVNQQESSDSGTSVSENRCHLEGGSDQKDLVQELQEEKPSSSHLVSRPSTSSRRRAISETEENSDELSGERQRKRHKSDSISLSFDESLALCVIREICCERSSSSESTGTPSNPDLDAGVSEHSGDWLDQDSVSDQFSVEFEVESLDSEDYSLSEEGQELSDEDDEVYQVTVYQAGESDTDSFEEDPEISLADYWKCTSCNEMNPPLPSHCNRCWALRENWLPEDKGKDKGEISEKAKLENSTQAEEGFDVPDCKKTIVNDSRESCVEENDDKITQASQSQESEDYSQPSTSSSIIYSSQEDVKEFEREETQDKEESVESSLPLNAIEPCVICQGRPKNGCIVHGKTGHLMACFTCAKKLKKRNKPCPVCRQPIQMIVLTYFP

[1] = % activity at 1 μM compound, control is related to 100% activity, HTS protocol

SMILES | IC50 (POSH) | remaining activity at 1 µM (Hmdm2; [1]) | remaining activity at 1 µM (Hmdm2)
CC(=C\c1ccccc1)/C=C1/SC(=N)NC1=O [Compound 31] | 0.9 µM | 102% | 
Oc1c(Br)cc(Br)cc1/C=N/c1nc2ccccc2s1 [Compound 62] | 0.7 µM | 120% | 
O=[N+]([O-])c1ccc(CN2CCN(c3cccc(Cl)c3)CC2)o1 [Compound 80] | 0.5 µM |  | 95%
COc1ccc(/C=C2\C(=O)NC(=S)N(c3ccccc3)C2=O)cc1 [Compound 11] | 10 µM | 95% | 
C=CCN1C(=O)NC(=O)/C(=C/c2ccc(F)cc2)C1=O [Compound 12] | 1 µM | 99% | 
O=C1C=CC(=O)N1c1cc(Cl)cc(Cl)c1 [Compound 23] | 0.2 µM | 107% | 
CN1C(=O)/C(=C\c2ccc(-c3cccc([N+](=O)[O-])c3)o2)SC1=S [Compound 115] | 0.6 µM |  | 108%
N=C1NC(=O)/C(=C\c2ccc(-c3ccc(I)cc3)o2)S1 [Compound 29] | 0.7 µM |  | 104%
O=C1C(=Cc2ccco2)C(=O)N(c2ccccc2)C(=S)N1c1ccccc1 [Compound 13] | 1 µM | 11% | 
Cc1ccc2nc(-c3ccc(/N=C/c4ccc([N+](=O)[O-])s4)cc3)sc2c1 [Compound 72] | 0.8 µM | 124% | 
O=C1NC(=O)/C(=C\c2ccc(-c3ccc(F)cc3)o2)S1 [Compound 108] | 0.9 µM | 108% | 
COC(=O)c1ccc(N2C(=O)c3cccc(N)c3C2=O)cc1 [Compound 21] | 0.8 µM | 80% | 
CCCCCCOc1ccc(C=C2C(=O)NC(=S)NC2=O)cc1 [Compound 15] | 0.5 µM |  | 90%
O=[N+]([O-])c1ccc(Cl)cc1CN1CCN(CCO)CC1 [Compound 82] | 0.3 µM | 120% | 
O=c1nc(C(F)(F)F)cc(/C=C/c2ccc(-c3ccc(Br)cc3)o2)[nH]1 [Compound 39] | 1 µM | 108% | 
OCc1cccc(/N=C/c2cccc(O)c2O)c1 [Compound 57] | 0.3 µM |  | 80%
O=[N+]([O-])c1ccc(-c2ccc(/N=C/c3c(O)ccc4ccccc34)cc2)cc1 [Compound 60] | 1 µM | 90% | 
CC(C)Oc1ccc(/C=C2/SC(=S)NC2=O)cc1 [Compound 26] | 3 µM | 98% | 
CN(C)c1ccc(/C=C2\C(=O)N(c3ccc([N+](=O)[O-])cc3)N=C2N2CCOCC2)cc1 [Compound 42] | 5 µM |  | 111%
O=C1/C(=C\c2ccc(Cl)c([N+](=O)[O-])c2)Sc2ccccc21 [Compound 50] | 0.1 µM | 98% | 
COc1ccc(/C=C/C(=O)C2C(=O)CCC2=O)cc1OC [Compound 113] | 0.4 µM | 101% | 
C=CCN1C(=O)/C(=C/c2c3ccccc3cc3ccccc23)SC1=S [Compound 109] | 0.5 µM |  | 106%
COc1ccc(CC(C)NCc2ccccc2Cl)cc1 (stereo not shown) [Compound 107] | 1 µM | 113% | 

SMILES | IC50 (POSH) | remaining activity at 1 µM (Hmdm2; [1]) | remaining activity at 1 µM (Hmdm2)
COc1ccccc1/C=C1\N=C(c2ccccc2Cl)OC1=O [Compound 49] | 1 µM | 115% | 
Cc1ccc(/N=C/c2cc(Br)cc(Br)c2O)c(C)c1 [Compound 54] | 0.5 µM |  | 124%
COc1ccc(/C=N/c2ccc(Nc3ccccc3)cc2)c2ccccc12 [Compound 55] | 0.5 µM |  | 58%
Cc1c(C(=O)/C=C/c2cccs2)c2cc(O)ccc2n1C [Compound 76] | 0.4 µM |  | 110%
O=C1N=C(c2ccccc2)S/C1=C/c1ccc(-c2cccc([N+](=O)[O-])c2)o1 [Compound 36] | 1 µM | 71% | 
Cc1c(C(=O)/C=C/c2ccccc2)c2cc(O)ccc2n1C [Compound 75] | 0.4 µM |  | 113%
O=C1\C(=C/C=C/C=C/Nc2ccccc2)SC(=S)N1c1ccccc1 [Compound 24] | 1 µM | 69% | 
Cc1ccc(/C=N/c2ccc(Cl)cc2)o1 [Compound 74] | 1 µM | 107% | 
O=C1S/C(=C/c2ccc(-c3ccc([N+](=O)[O-])cc3Cl)o2)C(=O)N1c1ccccc1 [Compound 27] | 0.7 µM |  | 
O=C(C(Cl)Cl)N1CCN(c2ccc([N+](=O)[O-])cc2)CC1 [Compound 79] | 0.9 µM | 94% | 
COc1cc(N/C=C2/C(=O)NC(=S)N(c3ccc(F)cc3)C2=O)cc(OC)c1 [Compound 17] | 0.7 µM | 106% | 
CN(C)c1ccc(/C=C2\SC(=S)N(C3CCS(=O)(=O)C3)C2=O)cc1 (stereo not shown) [Compound 110] | 0.6 µM |  | 51%
Cc1ccc(/N=C/c2cccc(O)c2O)cc1C [Compound 56] | 0.3 µM |  | 73%
O=C1C(=Cc2ccc(-c3ccc(Br)cc3)o2)C(=O)c2ccccc21 [Compound 38] | 0.4 µM |  | 111%
S=C(c1ccc(-c2cc(Cl)ccc2Cl)o1)N1CCCCC1 [Compound 35] | 0.5 µM |  | 101%
Oc1ccc2ccccc2c1/C=N/c1ncc(Br)cc1Br [Compound 66] | 0.9 µM | 120% | 
O=C1NC(=O)C(=Cc2ccc(-c3cc(Cl)ccc3Cl)o2)C(=O)N1 [Compound 1] | 0.2 µM |  | 105%
Oc1c(Br)cc(Cl)cc1/C=N/c1ccccn1 [Compound 64] | 0.9 µM | 115% | 
Cc1cc(C)c(O)c(/N=C/c2c(O)ccc3ccccc23)c1 [Compound 65] | 1 µM | 98% | 
Cc1cc([N+](=O)[O-])ccc1/N=C/c1ccc[nH]1 [Compound 70] | 0.6 µM |  | 125%
CCOC(=O)c1c(/N=C/c2cc(Br)ccc2O)sc2c1CCCC2 [Compound 68] | 1 µM | 110% | 
CC(=O)Nc1ccc(-c2cc3ccccn3c2)cc1 [Compound 78] | 0.9 µM | 93% | 
C=CCN1C(=O)NC(=O)/C(=C\c2ccccc2)C1=O [Compound 2] | 0.7 µM |  | 108%
